In PubChem BioAssay AID624129 (Sanford-Burnham Center for Chemical Genomics, 2012):
Activity calls are given as the source filed them. No rule for the calls is given here.

What was measured:
Experiment in all cases: CXCR6 receptor antagonists, dose response, cell-based, beta-arrestin, DiscoveRx, APJ panel, uHTS hits (AID 624129)
[1] = molecular target: C-C chemokine receptor type 6 (Homo sapiens) (UniProt P51684); settings: CXCR6 beta-arrestin (DiscoveRx) antagonist cell assay
[2] = molecular target: C-X-C chemokine receptor type 6 (Homo sapiens) (UniProt O00574); settings: CXCR6 beta-arrestin (DiscoveRx) antagonist cell assay
Sequence of C-X-C chemokine receptor type 6 (Homo sapiens) (O00574 whole entry, looked up): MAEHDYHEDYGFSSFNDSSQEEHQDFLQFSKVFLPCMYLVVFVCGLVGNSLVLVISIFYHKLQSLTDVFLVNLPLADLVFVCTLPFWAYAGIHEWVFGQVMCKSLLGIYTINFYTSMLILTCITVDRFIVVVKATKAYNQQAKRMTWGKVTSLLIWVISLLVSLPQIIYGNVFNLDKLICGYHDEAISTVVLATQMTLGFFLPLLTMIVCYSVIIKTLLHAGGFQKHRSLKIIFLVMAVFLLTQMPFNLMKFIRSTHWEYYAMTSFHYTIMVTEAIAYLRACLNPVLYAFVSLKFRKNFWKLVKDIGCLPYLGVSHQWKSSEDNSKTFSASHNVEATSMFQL

[3] = molecular target: Beta-galactosidase (Escherichia coli) (UniProt Q8VNN2); settings: CXCR6 beta-arrestin (DiscoveRx) antagonist cell assay, b-galactosidase
Sequence of Beta-galactosidase (Escherichia coli) (Q8VNN2 whole entry, looked up): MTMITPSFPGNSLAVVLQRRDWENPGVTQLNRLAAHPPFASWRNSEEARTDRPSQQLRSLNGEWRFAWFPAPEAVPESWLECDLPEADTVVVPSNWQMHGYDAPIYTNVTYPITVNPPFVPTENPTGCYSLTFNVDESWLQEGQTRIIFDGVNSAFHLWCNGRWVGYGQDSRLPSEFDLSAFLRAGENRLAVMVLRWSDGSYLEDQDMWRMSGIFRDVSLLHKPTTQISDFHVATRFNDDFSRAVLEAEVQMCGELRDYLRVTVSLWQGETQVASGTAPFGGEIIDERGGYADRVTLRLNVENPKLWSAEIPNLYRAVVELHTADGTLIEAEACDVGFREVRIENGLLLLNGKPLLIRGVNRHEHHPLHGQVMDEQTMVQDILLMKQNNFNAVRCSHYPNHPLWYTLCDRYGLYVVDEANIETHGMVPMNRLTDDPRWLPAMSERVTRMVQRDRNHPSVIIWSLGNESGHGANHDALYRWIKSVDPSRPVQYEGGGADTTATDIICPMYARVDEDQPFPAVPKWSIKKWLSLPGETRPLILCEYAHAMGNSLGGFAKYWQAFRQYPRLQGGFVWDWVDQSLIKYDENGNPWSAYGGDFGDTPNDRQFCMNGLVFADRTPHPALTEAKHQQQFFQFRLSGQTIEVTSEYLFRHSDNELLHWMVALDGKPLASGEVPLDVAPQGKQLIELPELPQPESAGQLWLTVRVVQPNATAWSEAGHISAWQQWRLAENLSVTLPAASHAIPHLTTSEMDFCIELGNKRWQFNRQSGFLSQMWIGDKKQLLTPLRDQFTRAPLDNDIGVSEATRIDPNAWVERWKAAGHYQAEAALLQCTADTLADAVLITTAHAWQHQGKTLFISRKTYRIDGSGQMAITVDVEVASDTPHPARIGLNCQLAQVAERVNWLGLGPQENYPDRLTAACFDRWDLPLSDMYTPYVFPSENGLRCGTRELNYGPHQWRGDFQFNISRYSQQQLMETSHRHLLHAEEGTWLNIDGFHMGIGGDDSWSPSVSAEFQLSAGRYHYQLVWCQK

[4] = molecular target: Apelin receptor (Homo sapiens) (UniProt P35414); settings: CXCR6 beta-arrestin (DiscoveRx) antagonist cell assay, APJ
[5] = CCR6, dose range 1, mean IC50 across replicates
[6] = CXCR6, dose range 1, mean IC50 across replicates
[7] = dose range 1, mean IC50 across replicates
[8] = CXCR6, run 1, dose range 2, at 80 µM (top of the series)

Compound | IC50 ([1]; CCR6, dose range 1) | IC50 [1, 5] [µM] | IC50 ([1]; CCR6, run 2, dose range 1) [µM] | IC50 [2, 6] [µM] | IC50 ([2]; CXCR6, run 1, dose range 2) [µM] | IC50 ([2]; CXCR6, run 2, dose range 1) [µM] | IC50 ([2]; CXCR6, run 2, dose range 2) [µM] | IC50 ([3]; dose range 1) | IC50 [3, 7] [µM] | IC50 ([4]; dose range 1) | IC50 [4, 7] [µM] | IC50 ([4]; run 2, dose range 1) [µM] | IC50 ([4]; run 3, dose range 1) [µM] | IC50 ([2]; CXCR6, dose range 1) | inhibition [2, 8] [%] | inhibition ([2]; CXCR6, run 1, dose range 2, at 40 µM (top of the series)) [%]
Cc1c(CCCl)c(Cl)n2c(nc3ccccc32)c1C#N | inactive | 41.5 | 51.1 | 6.38 | 5.75 | > 80 | 7.02 | > 80 µM (inactive) | > 80 | > 80 µM (inactive) | > 80 | > 80 | > 80 | – | – | –
Cc1cc(C)c2c(=O)n(CC(=O)Nc3cccc(Cl)c3C)sc2n1 | 1.85 µM | 2.69 | 3.52 | 2.42 | – | 2.16 | – | > 80 µM (inactive) | > 80 | 1.69 µM | 3.11 | 5.55 | 2.1 | 2.68 µM | – | 96.5
CCc1cc2c(=O)[nH]c(-c3ccccn3)nc2s1 | 1.76 µM | 2.43 | 3.1 | 1.76 | 1.4 | 1.74 | 1.28 | > 80 µM (inactive) | > 80 | 1.79 µM | 2.03 | 2.16 | 2.13 | 2.61 µM | – | –
C=C1C(=O)[C@]23C[C@H]1CCC2[C@@]1(C)C(C[C@@H]3O)[C@](C)(C(=O)OC)CC[C@@H]1OC(C)=O (some centres not stated) | 4.15 µM | 4.67 | 5.2 | 7.02 | 8.75 | 5.41 | 6.85 | > 80 µM (inactive) | > 80 | 9.62 µM | 21.3 | 8.73 | 45.6 | 7.07 µM | – | –
C=C1CC(COc2cc(=O)oc3ccccc23)(c2ccccc2)OC1=O (configuration not stated) | 6.18 µM | 6.81 | 7.45 | 6.87 | 6.11 | 7.9 | 5.67 | > 80 µM (inactive) | > 80 | 11 µM | 9.89 | 7.31 | 11.3 | 7.8 µM | – | –
Fc1ccc(Sc2nc(-c3ccccc3)nnc2C(F)(F)F)cc1 | 7.47 µM | 7.42 | 7.37 | 12 | 5.63 | 27.7 | 8.28 | > 80 µM (inactive) | > 80 | inactive | 64.5 | 57.4 | > 80 | inactive | – | –
COc1cc2c(cc1OC)C1(CCCC1)CNC2c1cccc([N+](=O)[O-])c1 (configuration not stated) | 11.9 µM | 12.4 | 13 | 14.1 | – | 12 | – | > 80 µM (inactive) | > 80 | 19.9 µM | 21.9 | 21 | 24.6 | inactive | 126 | –
COc1ccc(C(=O)/C=C/C(=O)N(CC(=O)NC2CCCCC2)Cc2cccs2)c(O)c1 | – | > 80 | > 80 | > 80 | – | > 80 | – | > 80 µM (inactive) | > 80 | – | > 80 | > 80 | > 80 | > 80 µM (inactive) | -73 | –

Continued, values first:

IC50 ([1]; CCR6, dose range 1) | IC50 [1, 5] [µM] | IC50 ([1]; CCR6, run 2, dose range 1) [µM] | IC50 [2, 6] [µM] | IC50 ([2]; CXCR6, run 1, dose range 2) [µM] | IC50 ([2]; CXCR6, run 2, dose range 1) [µM] | IC50 ([2]; CXCR6, run 2, dose range 2) [µM] | IC50 ([3]; dose range 1) | IC50 [3, 7] [µM] | IC50 ([4]; dose range 1) | IC50 [4, 7] [µM] | IC50 ([4]; run 2, dose range 1) [µM] | IC50 ([4]; run 3, dose range 1) [µM] | IC50 ([2]; CXCR6, dose range 1) | inhibition [2, 8] [%] | inhibition ([2]; CXCR6, run 1, dose range 2, at 40 µM (top of the series)) [%] | Compound
– | > 80 | > 80 | > 80 | – | > 80 | – | > 80 µM (inactive) | > 80 | – | > 80 | > 80 | > 80 | > 80 µM (inactive) | -37.9 | – | COc1ccccc1-c1cc(C(F)(F)F)nc(S(=O)(=O)CCCC(=O)NCc2ccc(F)cc2)n1
5.94 µM | 5.8 | 5.66 | 5.43 | 3.78 | 6.67 | 4.85 | > 80 µM (inactive) | > 80 | 6.69 µM | 15.4 | 11.2 | 28.2 | 6.4 µM | – | – | Oc1cccc2ccc(/C=C/c3c(F)cccc3Cl)nc12
7.57 µM | 7.24 | 6.9 | 8.6 | 8.96 | 8.78 | 8.98 | > 80 µM (inactive) | > 80 | 13.7 µM | 12.6 | 11.4 | > 80 | 7.68 µM | – | – | COc1ccc(OC)c(NC(=O)c2nc(S(=O)(=O)Cc3ccccc3)ncc2Cl)c1
3.27 µM | 3.72 | 4.17 | 4.87 | 4.61 | 5.18 | 4.96 | > 80 µM (inactive) | > 80 | 6.33 µM | 5.69 | 5.06 | 5.67 | 4.73 µM | – | – | COc1ccc(C(=O)/C(=C\c2ccco2)N2C=CC=CC2=C(C#N)C#N)cc1
14.3 µM | 18.8 | 23.3 | 21.8 | – | 24 | – | 31.8 µM | 31.8 | 15.5 µM | 19.1 | 22.8 | > 80 | inactive | 157 | – | Cc1ccc(C(C[N+](=O)[O-])Sc2ccc(N)cc2)cc1 (configuration not stated)
37.3 µM | 34.1 | 30.8 | 30.8 | – | 27.2 | – | > 80 µM (inactive) | > 80 | 47.9 µM | 48.1 | 47.7 | 48.7 | inactive | 123 | – | CN(C)S(=O)(=O)c1cccc(NC(=O)CSc2cccc3cccnc23)c1
2.91 µM | 2.95 | 2.99 | 3.74 | 3.95 | 3.64 | 3.79 | > 80 µM (inactive) | > 80 | 4.79 µM | 3.9 | 3.2 | 3.71 | 3.57 µM | – | – | N#CC(C#N)=C1C=CC=CN1/C(=C\c1ccco1)C(=O)c1ccccc1
5.35 µM | 5.73 | 6.11 | 8.81 | 6.87 | 7.01 | 7.46 | > 80 µM (inactive) | > 80 | 8.75 µM | 9.66 | 9.81 | 10.4 | 13.9 µM | – | – | Cc1cccc(C(=O)Nc2ccc(C(=O)/C=C/c3cccnc3)cc2)c1
7.84 µM | 7.29 | 6.75 | 6.87 | 3.62 | 7.93 | 6.29 | > 80 µM (inactive) | > 80 | 5.81 µM | 8.52 | 9.7 | 10 | 9.66 µM | – | – | NNc1nc(-c2ccccc2)cc(-c2ccccc2O)n1
